US11053204B2, “Pyrimidinyloxy benzene derivatives as herbicides” (FMC Corporation, priority 2015, dated 2021)

How the values were obtained:
Format in all cases: in vivo
[1] = system: ducksalad (Heteranthera limosa); test: Test B flooded paddy test, plant response rating; details: 250 g ai/ha, Flood, scale of 0 to 100 where 0 is no effect and 100 is complete control, 13 to 15 days
Outline: (§1)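 In-water treatment: compound dosed into 3 cm flood over soil, water level unchanged throughout. Controls run alongside; visual assessment at day 13–15.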

[2] = system: sedge, umbrella (small-flower umbrella sedge, Cyperus difformis); test: Test B flooded paddy test, plant response rating; details: 250 g ai/ha, Flood, scale of 0 to 100 where 0 is no effect and 100 is complete control, 13 to 15 days
Outline: as §1

[3] = system: barnyardgrass (Echinochloa crus-galli); test: Test B flooded paddy test, plant response rating; details: 250 g ai/ha, Flood, scale of 0 to 100 where 0 is no effect and 100 is complete control, 13 to 15 days
Outline: as §1

rice (Oryza sativa) = test: Test B flooded paddy test, plant response rating; details: 250 g ai/ha, Flood, scale of 0 to 100 where 0 is no effect and 100 is complete control, 13 to 15 days
Outline: as §1

[4] = system: chickweed (common chickweed, Stellaria media); test: Test C postemergence, plant response rating
Outline: (§2)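 Both timings shared one formulation, a non-phytotoxic solvent mixture with surfactant, and a greenhouse period of 13 to 15 d. Preemergence used seeded loam/sand or silt loam soil, postemergence used 2 to 18 cm plants; visual ratings ran from 0 (no effect) to 100 (complete control).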

kochia (Kochia scoparia) [5] = test: Test C postemergence, plant response rating
Outline: as §2

[6] = system: morningglory (Ipomoea coccinea); test: Test C postemergence, plant response rating
Outline: as §2

kochia (Kochia scoparia) [7] = test: Test A preemergence, visual injury rating; details: 0 to 100 scale (0 no effect, 100 complete control)
Outline: (§3)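 Compounds in non-phytotoxic solvent with surfactant applied as soil spray preemergence, or postemergence to plants 2-10 cm at one- to two-leaf stage, in loam/sand. After approximately 10 days in greenhouse, injury rated visually versus untreated controls, 0 (no effect) to 100 (complete control).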

[8] = system: pigweed (Amaranthus retroflexus); test: Test A preemergence, visual injury rating; details: 0 to 100 scale (0 no effect, 100 complete control)
Outline: as §3

[9] = system: blackgrass (Alopecurus myosuroides); test: Test A postemergence, visual injury rating; details: 0 is no effect, 100 is complete control
Outline: as §3

[10] = system: wheat (Triticum aestivum); test: Test A postemergence, visual injury rating; details: 0 is no effect, 100 is complete control
Outline: as §3

kochia (Kochia scoparia) [11] = test: Test A postemergence, visual injury rating; details: 0 is no effect, 100 is complete control
Outline: as §3

[12] = system: pigweed (Amaranthus retroflexus); test: Test A postemergence, visual injury rating; details: 0 is no effect, 100 is complete control
Outline: as §3

[13] = system: Italian ryegrass (Lolium multiflorum); test: Test A postemergence, visual injury rating; details: 0 is no effect, 100 is complete control
Outline: as §3

corn (Zea mays) = test: Test A postemergence, visual injury rating; details: 0 is no effect, 100 is complete control
Outline: as §3

[14] = system: galium (catchweed bedstraw, Galium aparine); test: Test A postemergence, visual injury rating; details: 0 is no effect, 100 is complete control
Outline: as §3

[15] = system: barnyardgrass (Echinochloa crus-galli); test: Test A postemergence, visual injury rating; details: 0 is no effect, 100 is complete control
Outline: as §3

[16] = system: giant foxtail (Setaria faberii); test: Test A postemergence, visual injury rating; details: 0 is no effect, 100 is complete control
Outline: as §3

[17] = system: ragweed (common ragweed, Ambrosia elatior); test: Test A postemergence, visual injury rating; details: 0 is no effect, 100 is complete control
Outline: as §3

[18] = 62 g ai/ha, scale 0 to 100 (0 no effect, 100 complete control)
[19] = 125 g ai/ha, scale 0 to 100 (0 no effect, 100 complete control)

## O=C(OCCC(F)(F)F)c1c(Br)cccc1Oc1ncc(Cl)cn1 [Compound 26, 3,3,3-trifluoropropyl 2-bromo-6-[(5-chloro-2-pyrimidinyl)oxy]benzoate]
[1]; Heteranthera limosa, 312 h
  pest or weed control at 250 g/ha: 100%
[2]; Cyperus difformis, 312 h
  pest or weed control at 250 g/ha: 100%
[3]; Echinochloa crus-galli, 312 h
  pest or weed control at 250 g/ha: 60%
Rice (Oryza sativa); Oryza sativa, 312 h
  plant injury at 250 g/ha: 20%
[4]; Stellaria media, post-emergence, 16 g ai/ha, scale 0 to 100
  pest or weed control at 16 g/ha: 55%
[4]; Stellaria media, post-emergence, 31 g ai/ha, scale 0 to 100
  pest or weed control at 31 g/ha: 80%
[4]; Stellaria media, post-emergence, 62 g ai/ha, scale 0 to 100 (0 no effect, 100 complete control)
  pest or weed control at 62 g/ha: 85%
[4]; Stellaria media, post-emergence, 125 g ai/ha, scale 0 to 100 (0 no effect, 100 complete control)
  pest or weed control at 125 g/ha: 98%
Kochia (Kochia scoparia) [5]; Bassia scoparia, post-emergence, 16 g ai/ha, scale 0 to 100
  pest or weed control at 16 g/ha: 90%
Kochia (Kochia scoparia) [5]; Bassia scoparia, post-emergence, 31 g ai/ha, scale 0 to 100
  pest or weed control at 31 g/ha: 90%
Kochia (Kochia scoparia) [5]; Bassia scoparia, post-emergence, 62 g ai/ha, scale 0 to 100 (0 no effect, 100 complete control)
  pest or weed control at 62 g/ha: 90%
Kochia (Kochia scoparia) [5]; Bassia scoparia, post-emergence, 125 g ai/ha, scale 0 to 100 (0 no effect, 100 complete control)
  pest or weed control at 125 g/ha: 95%
[6]; Ipomoea, post-emergence, 16 g ai/ha, scale 0 to 100
  pest or weed control at 16 g/ha: 65%
[6]; Ipomoea, post-emergence, 31 g ai/ha, scale 0 to 100
  pest or weed control at 31 g/ha: 60%
[6]; Ipomoea, post-emergence, 62 g ai/ha, scale 0 to 100 (0 no effect, 100 complete control)
  pest or weed control at 62 g/ha: 65%
[6]; Ipomoea, post-emergence, 125 g ai/ha, scale 0 to 100 (0 no effect, 100 complete control)
  pest or weed control at 125 g/ha: 85%
Kochia (Kochia scoparia) [7]; Bassia scoparia, pre-emergence, 240 h, 125 g ai/ha, read-out: Kochia plant response rating
  pest or weed control at 125 g/ha: 100%
Kochia (Kochia scoparia) [7]; Bassia scoparia, pre-emergence, 240 h, 500 g ai/ha, read-out: Kochia plant response rating
  pest or weed control at 500 g/ha: 100%
[8]; Amaranthus retroflexus, pre-emergence, 240 h, 125 g ai/ha, read-out: Pigweed plant response rating
  pest or weed control at 125 g/ha: 100%
[8]; Amaranthus retroflexus, pre-emergence, 240 h, 500 g ai/ha, read-out: Pigweed plant response rating
  pest or weed control at 500 g/ha: 100%
[9]; Alopecurus myosuroides, post-emergence, 240 h, 125 g ai/ha, read-out: Blackgrass plant response rating (0 to 100 scale)
  pest or weed control at 125 g/ha: 100%
[9]; Alopecurus myosuroides, post-emergence, 240 h, 500 g ai/ha, read-out: Blackgrass plant response rating (0 to 100 scale)
  pest or weed control at 500 g/ha: 100%
[10]; Triticum aestivum, post-emergence, 240 h, 125 g ai/ha, read-out: Wheat plant response rating (0 to 100 scale)
  plant injury at 125 g/ha: 40%
[10]; Triticum aestivum, post-emergence, 240 h, 500 g ai/ha, read-out: Wheat plant response rating (0 to 100 scale)
  plant injury at 500 g/ha: 90%
Kochia (Kochia scoparia) [11]; Bassia scoparia, post-emergence, 240 h, 125 g ai/ha, read-out: Kochia plant response rating (0 to 100 scale)
  pest or weed control at 125 g/ha: 100%
Kochia (Kochia scoparia) [11]; Bassia scoparia, post-emergence, 240 h, 500 g ai/ha, read-out: Kochia plant response rating (0 to 100 scale)
  pest or weed control at 500 g/ha: 100%
[12]; Amaranthus retroflexus, post-emergence, 240 h, 125 g ai/ha, read-out: Pigweed plant response rating (0 to 100 scale)
  pest or weed control at 125 g/ha: 100%
[12]; Amaranthus retroflexus, post-emergence, 240 h, 500 g ai/ha, read-out: Pigweed plant response rating (0 to 100 scale)
  pest or weed control at 500 g/ha: 100%
[13]; Lolium multiflorum, post-emergence, 240 h, 125 g ai/ha, read-out: Ryegrass, Italian plant response rating (0 to 100 scale)
  pest or weed control at 125 g/ha: 70%
[13]; Lolium multiflorum, post-emergence, 240 h, 500 g ai/ha, read-out: Ryegrass, Italian plant response rating (0 to 100 scale)
  pest or weed control at 500 g/ha: 80%
Corn (Zea mays); Zea mays, post-emergence, 240 h, 125 g ai/ha, read-out: Corn plant response rating (0 to 100 scale)
  plant injury at 125 g/ha: 60%
Corn (Zea mays); Zea mays, post-emergence, 240 h, 500 g ai/ha, read-out: Corn plant response rating (0 to 100 scale)
  plant injury at 500 g/ha: 100%
[14]; Galium, post-emergence, 240 h, 125 g ai/ha, read-out: Galium plant response rating (0 to 100 scale)
  pest or weed control at 125 g/ha: 100%
[14]; Galium, post-emergence, 240 h, 500 g ai/ha, read-out: Galium plant response rating (0 to 100 scale)
  pest or weed control at 500 g/ha: 100%
[15]; Echinochloa crus-galli, post-emergence, 240 h, 125 g ai/ha, read-out: Barnyardgrass plant response rating (0 to 100 scale)
  pest or weed control at 125 g/ha: 100%
[15]; Echinochloa crus-galli, post-emergence, 240 h, 500 g ai/ha, read-out: Barnyardgrass plant response rating (0 to 100 scale)
  pest or weed control at 500 g/ha: 100%
[16]; Setaria faberi, post-emergence, 240 h, 125 g ai/ha, read-out: Foxtail, Giant plant response rating (0 to 100 scale)
  pest or weed control at 125 g/ha: 100%
[16]; Setaria faberi, post-emergence, 240 h, 500 g ai/ha, read-out: Foxtail, Giant plant response rating (0 to 100 scale)
  pest or weed control at 500 g/ha: 100%
[17]; Ambrosia artemisiifolia, post-emergence, 240 h, 125 g ai/ha, read-out: Ragweed plant response rating (0 to 100 scale)
  pest or weed control at 125 g/ha: 30%
[17]; Ambrosia artemisiifolia, post-emergence, 240 h, 500 g ai/ha, read-out: Ragweed plant response rating (0 to 100 scale)
  pest or weed control at 500 g/ha: 60%

## O=C(OCCC(F)(F)F)c1c(Br)cccc1Oc1ncc(Br)cn1 [Compound 33]
[1]
  Plant response rating, Ducksalad: 80
[2]
  Plant response rating, Sedge, Umbrella: 95
[3]
  Plant response rating, Barnyardgrass: 0
Rice (Oryza sativa)
  Plant response rating, Rice: 0
[4]; 16 g ai/ha, scale 0 to 100
  Plant response rating, Chickweed: 50
[4]; 31 g ai/ha, scale 0 to 100
  Plant response rating, Chickweed: 55
[4]; [18]
  Chickweed plant response rating: 85
[4]; [19]
  Chickweed plant response rating: 85
Kochia (Kochia scoparia) [5]; 16 g ai/ha, scale 0 to 100
  Plant response rating, Kochia: 90
Kochia (Kochia scoparia) [5]; 31 g ai/ha, scale 0 to 100
  Plant response rating, Kochia: 95
Kochia (Kochia scoparia) [5]; [18]
  Kochia plant response rating: 95
Kochia (Kochia scoparia) [5]; [19]
  Kochia plant response rating: 95
[6]; 16 g ai/ha, scale 0 to 100
  Plant response rating, Morningglory: 55
[6]; 31 g ai/ha, scale 0 to 100
  Plant response rating, Morningglory: 65
[6]; [18]
  Morningglory plant response rating: 75
[6]; [19]
  Morningglory plant response rating: 65
Kochia (Kochia scoparia) [7]; 125 g ai/ha
  Kochia plant response rating: 60
Kochia (Kochia scoparia) [7]; 500 g ai/ha
  Kochia plant response rating: 100
[8]; 125 g ai/ha
  Pigweed plant response rating: 100
[8]; 500 g ai/ha
  Pigweed plant response rating: 100
[9]; 125 g ai/ha
  Blackgrass plant response rating (0 to 100 scale): 60
[9]; 500 g ai/ha
  Blackgrass plant response rating (0 to 100 scale): 90
[10]; 125 g ai/ha
  Wheat plant response rating (0 to 100 scale): 20
[10]; 500 g ai/ha
  Wheat plant response rating (0 to 100 scale): 60
Kochia (Kochia scoparia) [11]; 125 g ai/ha
  Kochia plant response rating (0 to 100 scale): 100
Kochia (Kochia scoparia) [11]; 500 g ai/ha
  Kochia plant response rating (0 to 100 scale): 100
[12]; 125 g ai/ha
  Pigweed plant response rating (0 to 100 scale): 100
[12]; 500 g ai/ha
  Pigweed plant response rating (0 to 100 scale): 100
[13]; 125 g ai/ha
  Ryegrass, Italian plant response rating (0 to 100 scale): 30
[13]; 500 g ai/ha
  Ryegrass, Italian plant response rating (0 to 100 scale): 80
Corn (Zea mays); 125 g ai/ha
  Corn plant response rating (0 to 100 scale): 30
Corn (Zea mays); 500 g ai/ha
  Corn plant response rating (0 to 100 scale): 90
[14]; 125 g ai/ha
  Galium plant response rating (0 to 100 scale): 100
[14]; 500 g ai/ha
  Galium plant response rating (0 to 100 scale): 100
[15]; 125 g ai/ha
  Barnyardgrass plant response rating (0 to 100 scale): 80
[15]; 500 g ai/ha
  Barnyardgrass plant response rating (0 to 100 scale): 100
[16]; 125 g ai/ha
  Foxtail, Giant plant response rating (0 to 100 scale): 100
[16]; 500 g ai/ha
  Foxtail, Giant plant response rating (0 to 100 scale): 100
[17]; 125 g ai/ha
  Ragweed plant response rating (0 to 100 scale): 30
[17]; 500 g ai/ha
  Ragweed plant response rating (0 to 100 scale): 40
